Experimental data reported in ChEMBL document CHEMBL2413073, “Efficient construction of novel D-ring modified steroidal dienamides and their cytotoxic activities” (Eur J Med Chem, 2013).

Experiments:
MGC-803 [1] = test: Cytotoxicity against human MGC803 cells after 72 hrs by MTT assay; format: functional, cell-based; conditions: MGC-803, 72 h
MCF7 = test: cells; conditions: Homo sapiens, MCF7, 72 h
Description: Cytotoxicity against human MCF7 cells after 72 hrs by MTT assay

SMMC-7721 [2] = test: Cytotoxicity against human SMMC7721 cells after 72 hrs by MTT assay; format: functional, cell-based; conditions: SMMC-7721, 72 h
PC-3 = test: Cytotoxicity against human PC3 cells after 72 hrs by MTT assay; format: functional, cell-based; conditions: PC-3, 72 h
[3] = Cytotoxicity against human EC109 cells after 72 hrs by MTT assay; format: functional, cell-based; conditions: ECa-109, 72 h
MGC-803 [4] = test: Ratio of 5-fluorouracil IC50 to compound IC50 for human MGC803 cells; format: functional
SMMC-7721 [5] = test: Ratio of 5-fluorouracil IC50 to compound IC50 for human SMMC7721 cells; format: functional

| Structure (SMILES) | IC50 (MGC-803 [1]) [µM] | IC50 (MCF7) [µM] | IC50 (SMMC-7721 [2]) [µM] | IC50 (PC-3) [µM] | IC50 [3] [µM] | Ratio IC50 (MGC-803 [4]) | Ratio IC50 (SMMC-7721 [5]) |
| --- | --- | --- | --- | --- | --- | --- | --- |
| CC(=O)O[C@H]1CC[C@@]2(C)C(=CC[C@@H]3[C@@H]2CC[C@]2(C)C(=C(/C#N)C(N)=O)/C(=C/c4ccccc4F)C[C@@H]32)C1 | 2.99 | 4.66 | 15.4 | 11.4 | 15.6 |  |  |
| CC(=O)O[C@H]1CC[C@@]2(C)C(=CC[C@@H]3[C@@H]2CC[C@]2(C)C(=C(/C#N)C(N)=O)/C(=C/c4ccc(F)cc4)C[C@@H]32)C1 | 3.11 | 3.67 | 5.9 | 9.17 | 4.78 |  |  |
| CC(=O)O[C@H]1CC[C@@]2(C)C(=CC[C@@H]3[C@@H]2CC[C@]2(C)C(=C(/C#N)C(N)=O)/C(=C/c4cccs4)C[C@@H]32)C1 | 0.15 | 22.8 | 20.4 | 20.4 | 20.3 | 45 |  |
| CC(=O)O[C@H]1CC[C@@]2(C)C(=CC[C@@H]3[C@@H]2CC[C@]2(C)C(=C(/C#N)C(N)=O)/C(=C/c4ccc(Br)cc4)C[C@@H]32)C1 | 2.71 | 2.95 | 16.5 | 26.8 | 5.3 |  |  |
| C[C@]12CC[C@H](O)CC1=CC[C@@H]1[C@@H]2CC[C@]2(C)C(=C(/C#N)C(N)=O)/C(=C/c3ccccc3F)C[C@@H]12 | 2.69 | 6.58 | 1.9 | 13.3 | 14.6 |  | 5 |
| CC(=O)O[C@H]1CC[C@@]2(C)C(=CC[C@@H]3[C@@H]2CC[C@]2(C)C(=C(/C#N)C(N)=O)/C(=C/c4ccccc4Cl)C[C@@H]32)C1 | 0.58 | 6.27 | 18.4 | 24.3 | 11.9 |  |  |
| CC(=O)O[C@H]1CC[C@@]2(C)C(=CC[C@@H]3[C@@H]2CC[C@]2(C)C(=C(/C#N)C(N)=O)/C(=C/c4ccco4)C[C@@H]32)C1 | 0.12 | 39.4 | 22.9 | 23.4 | 39.4 | 57 |  |
| CC(=O)O[C@H]1CC[C@@]2(C)C(=CC[C@@H]3[C@@H]2CC[C@]2(C)C(=C(/C#N)C(N)=O)/C(=C/c4cccc(Cl)c4)C[C@@H]32)C1 | 0.11 | 8.01 | 7.12 | 11.3 | 8.97 |  |  |
| C[C@]12CC[C@H](O)CC1=CC[C@@H]1[C@@H]2CC[C@]2(C)C(=C(/C#N)C(N)=O)/C(=C/c3ccc(F)cc3)C[C@@H]12 | 5.67 | 5.92 | 3.34 | 14.6 | 8.69 |  |  |
| CC(=O)O[C@H]1CC[C@@]2(C)C(=CC[C@@H]3[C@@H]2CC[C@]2(C)C(=C(/C#N)C(N)=O)/C(=C/c4ccc(C)cc4)C[C@@H]32)C1 | 8.1 | 6.35 | 18.6 | 22.9 | 12 |  |  |
| COc1cc(/C=C2\C[C@H]3[C@@H]4CC=C5C[C@@H](OC(C)=O)CC[C@]5(C)[C@H]4CC[C@]3(C)\C2=C(\C#N)C(N)=O)cc(OC)c1OC | 6.34 | 5.23 | 2.82 | 11.7 | 5.28 |  |  |
| CC(=O)O[C@H]1CC[C@@]2(C)C(=CC[C@@H]3[C@@H]2CC[C@]2(C)C(=C(/C#N)C(N)=O)/C(=C/c4ccc(Cl)c(Cl)c4)C[C@@H]32)C1 | 3.2 | 2.21 | 2.55 | 8.18 | 4.37 |  |  |
| COc1cccc(/C=C2\C[C@H]3[C@@H]4CC=C5C[C@@H](O)CC[C@]5(C)[C@H]4CC[C@]3(C)\C2=C(\C#N)C(N)=O)c1 | 3.96 | 5.57 | 6.09 | 14 | 9.27 |  |  |
| CC(=O)O[C@H]1CC[C@@]2(C)C(=CC[C@@H]3[C@@H]2CC[C@]2(C)C(=C(/C#N)C(N)=O)/C(=C/c4ccc(F)c(F)c4)C[C@@H]32)C1 | 1.56 | 4.77 | 5.66 | 8.48 | 3.05 |  |  |
| O=c1[nH]cc(F)c(=O)[nH]1 [FLUOROURACIL] |  |  | 9.78 | 24.8 | 10.6 |  |  |
| CC(=O)O[C@H]1CC[C@@]2(C)C(=CC[C@@H]3[C@@H]2CC[C@]2(C)C(=C(/C#N)C(N)=O)/C(=C/c4ccc(C(C)C)cc4)C[C@@H]32)C1 | 1.09 | 15.3 | 9.3 | 13.5 | 10 |  |  |
| COc1cc(/C=C2\C[C@H]3[C@@H]4CC=C5C[C@@H](O)CC[C@]5(C)[C@H]4CC[C@]3(C)\C2=C(\C#N)C(N)=O)cc(OC)c1OC | 1.83 | 6.54 | 7.94 | 12.2 | 8.72 |  |  |
| CC(=O)O[C@H]1CC[C@@]2(C)C(=CC[C@@H]3[C@@H]2CC[C@]2(C)C(=C(/C#N)C(N)=O)/C(=C/c4ccc(Cl)cc4Cl)C[C@@H]32)C1 | 7.38 | 3.98 | 5.04 | 24.3 | 5.24 |  |  |
| COc1cccc(/C=C2\C[C@H]3[C@@H]4CC=C5C[C@@H](OC(C)=O)CC[C@]5(C)[C@H]4CC[C@]3(C)\C2=C(\C#N)C(N)=O)c1 | 2.19 | 8.36 | 11.5 | 13 | 7.04 |  |  |
| CC(=O)O[C@H]1CC[C@@]2(C)C(=CC[C@@H]3[C@@H]2CC[C@]2(C)C(=C(/C#N)C(N)=O)/C(=C/c4ccccc4)C[C@@H]32)C1 | 3.1 | 7.47 | 5.03 | 12.8 | 11.7 |  |  |
| CC(=O)O[C@H]1CC[C@@]2(C)C(=CC[C@@H]3[C@@H]2CC[C@]2(C)C(=C(/C#N)C(N)=O)/C(=C/c4ccccc4C#N)C[C@@H]32)C1 |  | 22.4 |  |  |  |  |  |
| C[C@]12CC[C@H](O)CC1=CC[C@@H]1[C@@H]2CC[C@]2(C)C(=C(/C#N)C(N)=O)/C(=C/c3ccc(Cl)c(Cl)c3)C[C@@H]12 | 5.11 | 2.41 | 3.34 | 8.84 | 8.61 |  |  |
| C[C@]12CC[C@H](O)CC1=CC[C@@H]1[C@@H]2CC[C@]2(C)C(=C(/C#N)C(N)=O)/C(=C/c3ccccc3Cl)C[C@@H]12 | 5.13 | 5.34 | 3.63 | 16.9 | 13.2 |  |  |
